Test results published in patent US20240228488A1 (TAKEDA PHARMACEUTICAL COMPANY LIMITED, priority 2021, published 2024).

Target: human activated kallikrein enzyme (Homo sapiens, UniProt P03952)
Experiment: Plasma kallikrein inhibition, fluorogenic PFR-AMC substrate, 500 pM activated kallikrein format
Format: biochemical
Conditions: 500 pM activated kallikrein, 300 uM PFR-AMC, 30 min preincubation, 10 min reaction; read-out: Primary Dose Response Assay: Average EC50
Procedure, shortened: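 500 pM enz + cpd, 30 min RT preinc; start w/ PFR-AMC 300 uM; 10 min RT; Ex380/Em460. Buffer: Tris 20 mM pH 7.5, EDTA 1 mM, NaCl 150 mM, PEG-400 0.1%, Triton 0.1%. EC50.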

human activated kallikrein enzyme, sequence (P03952 391-638 limits assumed): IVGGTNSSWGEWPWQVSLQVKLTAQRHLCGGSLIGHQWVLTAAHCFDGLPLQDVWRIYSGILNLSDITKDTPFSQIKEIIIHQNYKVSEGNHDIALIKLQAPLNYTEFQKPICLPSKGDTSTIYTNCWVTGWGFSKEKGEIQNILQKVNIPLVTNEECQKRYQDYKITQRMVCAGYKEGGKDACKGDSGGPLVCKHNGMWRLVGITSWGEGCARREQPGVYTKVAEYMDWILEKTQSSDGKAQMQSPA
human activated kallikrein enzyme, sequence (P03952 20-390 partner limits assumed): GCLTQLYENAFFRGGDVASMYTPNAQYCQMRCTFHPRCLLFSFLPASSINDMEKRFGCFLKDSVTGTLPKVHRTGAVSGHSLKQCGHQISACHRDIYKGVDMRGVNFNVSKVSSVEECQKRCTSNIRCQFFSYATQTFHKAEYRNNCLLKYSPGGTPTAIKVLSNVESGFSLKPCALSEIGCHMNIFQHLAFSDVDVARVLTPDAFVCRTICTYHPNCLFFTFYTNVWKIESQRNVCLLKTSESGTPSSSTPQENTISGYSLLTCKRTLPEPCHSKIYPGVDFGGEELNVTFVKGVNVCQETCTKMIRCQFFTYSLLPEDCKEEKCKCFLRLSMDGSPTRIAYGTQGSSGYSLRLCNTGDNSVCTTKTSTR

SMILES | EC50 [nM]
CN1C(=O)[C@]2(C[C@H]2C(=O)Nc2cc(NCc3cn4cc(C5CC5)ccc4n3)ncn2)c2cc(Cl)ccc21 (racemic) [Example 413, rac-(1R*,2S*)-5′-chloro-N-(6-(((6-cyclopropylimidazo[1,2-a]pyridin-2-yl)methyl)amino)pyrimidin-4-yl)-1′-methyl-2′-oxospiro[cyclopropane-1,3′-indoline]-2-carboxamide] | 100 to 1000
O=C(Nc1cc(NCc2cn3cc(C4CC4)ccc3n2)ncn1)[C@@H]1[C@@H](c2cccc(Cl)c2)C1(F)F (racemic) [Example 503, rac-(1S*,3S*)-3-(3-chlorophenyl)-N-(6-(((6-cyclopropylimidazo[1,2-a]pyridin-2-yl)methyl)amino)pyrimidin-4-yl)-2,2-difluorocyclopropane-1-carboxamide] | 1 to 10
O=C(Nc1cc(NCc2cn3cc(C4CC4)ccc3n2)ncn1)[C@H]1C[C@@H]1c1ncn2ccc(Cl)c(F)c12 (racemic) [Example 504, rac-(1S*,2S*)-2-(7-chloro-8-fluoroimidazo[1,5-a]pyridin-1-yl)-N-(6-(((6-cyclopropylimidazo[1,2-a]pyridin-2-yl)methyl)amino)pyrimidin-4-yl)cyclopropane-1-carboxamide] | 10 to 100
O=C(Nc1cc(NCc2cn3cc(C4CC4)ccc3n2)ncn1)[C@@H]1C[C@]12C(=O)Nc1ccc(Cl)cc12 (racemic) [Example 509, rac-(1R*,2S*)-5′-chloro-N-(6-(((6-cyclopropylimidazo[1,2-a]pyridin-2-yl)methyl)amino)pyrimidin-4-yl)-2′-oxospiro[cyclopropane-1,3′-indoline]-2-carboxamide] | < 1
O=C(Nc1cc(NCc2cn3cc(C4CC4)ccc3n2)ncn1)[C@@H]1C[C@@]12C(=O)Nc1ccc(Cl)cc12 (racemic) [Example 510, rac-(1R*,2R*)-5′-chloro-N-(6-(((6-cyclopropylimidazo[1,2-a]pyridin-2-yl)methyl)amino)pyrimidin-4-yl)-2′-oxospiro[cyclopropane-1,3′-indoline]-2-carboxamide] | 100 to 1000
O=C(Nc1cc(NCc2cn3cc(C4CC4)ccc3n2)ncn1)[C@H]1[C@H](F)[C@@H]1c1cccc(Cl)c1 (racemic) [Example 511, rac-(1R*,2R*,3S*)-2-(3-chlorophenyl)-N-(6-(((6-cyclopropylimidazo[1,2-a]pyridin-2-yl)methyl)amino)pyrimidin-4-yl)-3-fluorocyclopropane-1-carboxamide] | 1 to 10
O=C(Nc1cc(NCc2cn3cc(C4CC4)ccc3n2)ccn1)[C@@H]1C[C@]12C(=O)Nc1ccc(Cl)cc12 (racemic) [Example 514, rac-(1R*,2S*)-5′-chloro-N-(4-(((6-cyclopropylimidazo[1,2-a]pyridin-2-yl)methyl)amino)pyridin-2-yl)-2′-oxospiro[cyclopropane-1,3′-indoline]-2-carboxamide] | 10 to 100
Cc1ccnc([C@H]2C[C@]2(F)C(=O)Nc2cc(N[C@H](C)c3cn4cc(C5CC5)cc(N5CC(=O)N(C)C5=O)c4n3)nc(C)n2)n1 (racemic) [Example 528, rac-(1S*,2S*)-N-(6-(((R)-1-(6-cyclopropyl-8-(3-methyl-2,4-dioxoimidazolidin-1-yl)imidazo[1,2-a]pyridin-2-yl)ethyl)amino)-2-methylpyrimidin-4-yl)-1-fluoro-2-(4-methylpyrimidin-2-yl)cyclopropane-1-carboxamide] | 1 to 10
N#Cc1cc(C2CC2)cn2cc(COc3ccnc(NC(=O)[C@H]4C[C@@H]4c4cccc(Cl)c4)c3)nc12 (racemic) [Example 567, rac-(1S*,2S*)-2-(3-chlorophenyl)-N-(4-((8-cyano-6-cyclopropylimidazo[1,2-a]pyridin-2-yl)methoxy)pyridin-2-yl)cyclopropane-1-carboxamide] | 10 to 100
NCc1cc(C2CC2)cn2cc(COc3ccnc(NC(=O)[C@H]4C[C@@H]4c4cccc(Cl)c4)c3)nc12 (racemic) [Example 572, rac-(1S*,2S*)—N-(4-((8-(aminomethyl)-6-cyclopropylimidazo[1,2-a]pyridin-2-yl)methoxy)pyridin-2-yl)-2(3-chlorophenyl)cyclopropane-1-carboxamide] | 1 to 10
Cc1ccnc([C@H]2C[C@@H]2C(=O)Nc2nccc3nn(Cc4cn5cc(C6CC6)cc(N6CC(=O)N(C)C6=O)c5n4)cc23)n1 (racemic) [Example 576, rac-(1S*,2S*)—N-(2-((6-cyclopropyl-8-(3-methyl-2,4-dioxoimidazolidin-1-yl)imidazo[1,2-a]pyridin-2-yl)methyl)-2H-pyrazolo[4,3-c]pyridin-4-yl)-2-(4-methylpyrimidin-2-yl)cyclopropane-1-carboxamide] | < 1
O=C(Nc1nccc2nn(Cc3cn4cc(C5CC5)ccc4n3)cc12)[C@H]1C[C@@H]1c1cc(Cl)ccc1[N+](=O)[O-] (racemic) [Example 578, rac-(1S*,2S*)-2-(5-chloro-2-nitrophenyl)-N-(2-((6-cyclopropylimidazo[1,2-a]pyridin-2-yl)methyl)-2H-pyrazolo[4,3-c]pyridin-4-yl)cyclopropane-1-carboxamide] | 1 to 10
N#Cc1ccc(Cl)cc1[C@H]1C[C@@H]1C(=O)Nc1nccc2nn(Cc3cn4cc(C5CC5)ccc4n3)cc12 (racemic) [Example 579, rac-(1S*,2S*)-2-(5-chloro-2-cyanophenyl)-N-(2-((6-cyclopropylimidazo[1,2-a]pyridin-2-yl)methyl)-2H-pyrazolo[4,3-c]pyridin-4-yl)cyclopropane-1-carboxamide] | < 1
Nc1ccc(Cl)cc1[C@H]1C[C@@H]1C(=O)Nc1nccc2nn(Cc3cn4cc(C5CC5)ccc4n3)cc12 (racemic) [Example 585, rac-(1S*,2S*)-2-(2-amino-5-chlorophenyl)-N-(2-((6-cyclopropylimidazo[1,2-a]pyridin-2-yl)methyl)-2H-pyrazolo[4,3-c]pyridin-4-yl)cyclopropane-1-carboxamide] | 10 to 100
O=C(Nc1nccc2nn(Cc3cn4cc(C5CC5)ccc4n3)cc12)[C@H]1C[C@@H]1c1cc(Cl)ccc1-n1cnnn1 (racemic) [Example 586, rac-(1S*,2S*)-2-(5-chloro-2-(1H-tetrazol-1-yl)phenyl)-N-(2-((6-cyclopropylimidazo[1,2-a]pyridin-2-yl)methyl)-2H-pyrazolo[4,3-c]pyridin-4-yl)cyclopropane-1-carboxamide] | < 1
O=C(Nc1cc(Cc2cn3cc(C4CC4)ccc3n2)ncn1)[C@H]1C[C@@H]1c1cccc(Cl)c1 (racemic) [Example 587, rac-(1S*,2S*)-2-(3-chlorophenyl)-N-(6-((6-cyclopropylimidazo[1,2-a]pyridin-2-yl)methyl)pyrimidin-4-yl)cyclopropane-1-carboxamide] | 100 to 1000
O=C(NCc1cn(Cc2cn3cc(C4CC4)ccc3n2)nn1)[C@H]1C[C@@H]1c1cccc(Cl)c1 (racemic) [Example 588, rac-(1S*,2S*)-2-(3-chlorophenyl)-N-((1-((6-cyclopropylimidazo[1,2-a]pyridin-2-yl)methyl)-1H-1,2,3-triazol-4-yl)methyl)cyclopropane-1-carboxamide] | 10 to 100
O=C(Nc1nccc2cn(Cc3cn4cc(C5CC5)ccc4n3)nc12)[C@H]1C[C@@H]1c1cccc(Cl)c1 (racemic) [Example 592, rac-(1S*,2S*)-2-(3-chlorophenyl)-N-(2-((6-cyclopropylimidazo[1,2-a]pyridin-2-yl)methyl)-2H-pyrazolo[3,4-c]pyridin-7-yl)cyclopropane-1-carboxamide] | 1 to 10
O=C(Nc1cn(Cc2cn3cc(C4CC4)ccc3n2)nn1)[C@H]1C[C@@H]1c1cccc(Cl)c1 (racemic) [Example 593, rac-(1S*,2S*)-2-(3-chlorophenyl)-N-(1-((6-cyclopropylimidazo[1,2-a]pyridin-2-yl)methyl)-1H-1,2,3-triazol-4-yl)cyclopropane-1-carboxamide] | > 6000
O=C(Nc1cc2c(cn1)ncn2Cc1cn2cc(C3CC3)ccc2n1)[C@H]1C[C@@H]1c1cccc(Cl)c1 (racemic) [Example 594, rac-(1S*,2S*)-2-(3-chlorophenyl)-N-(1-((6-cyclopropylimidazo[1,2-a]pyridin-2-yl)methyl)-1H-imidazo[4,5-c]pyridin-6-yl)cyclopropane-1-carboxamide] | 10 to 100
Cc1ccnc([C@H]2C[C@@H]2C(=O)Nc2cc(NCc3cn4cc(C5CC5)ccc4n3)ccc2S(C)(=O)=O)n1 (racemic) [Example 619, rac-(1S*,2S*)—N-(5-(((6-cyclopropylimidazo[1,2-a]pyridin-2-yl)methyl)amino)-2-(methylsulfonyl)phenyl)-2-(4-methylpyrimidin-2-yl)cyclopropane-1-carboxamide] | 1000 to 6000
Cc1ccnc([C@H]2C[C@@H]2C(=O)Nc2cc(NCc3cn4cc(C5CC5)cc(N5CC(=O)N(C)C5=O)c4n3)n3ncnc3n2)n1 (racemic) [Example 624, rac-(1S*,2S*)—N-(7-(((6-cyclopropyl-8-(3-methyl-2,4-dioxoimidazolidin-1-yl)imidazo[1,2-a]pyridin-2-yl)methyl)amino)-[1,2,4]triazolo[1,5-a]pyrimidin-5-yl)-2-(4-methylpyrimidin-2-yl)cyclopropane-1-carboxamide] | < 1
Cc1ccnc([C@H]2C[C@@H]2C(=O)Nc2ncc3oc(=O)n(Cc4cn5cc(C6CC6)cc(N6CC(=O)N(C)C6=O)c5n4)c3n2)n1 (racemic) [Example 626, rac-(1S*,2S*)—N-(3-((6-cyclopropyl-8-(3-methyl-2,4-dioxoimidazolidin-1-yl)imidazo[1,2-a]pyridin-2-yl)methyl)-2-oxo-2,3-dihydrooxazolo[4,5-d]pyrimidin-5-yl)-2-(4-methylpyrimidin-2-yl)cyclopropane-1-carboxamide] | < 1
